Measured values as given in PMC13053910, “Covalent Protein Inhibitors via Tyrosine and Tryptophan Conjugation with Cyclic Imine Mannich Electrophiles” (Angewandte Chemie (International Ed. in English), 2026).
Like-named read-outs stand apart in the source and are kept apart here.

Legend:
[1] = Stability of warheads and inhibitors (solid, PBS, hydrolysis); type: physicochemical; conditions: 24 h in aqueous buffer, then sodium cyanoborohydride, mass spectrometry
Procedure: To be suitable for chemical probe and therapeutic applications, the warhead should show good stability. In general, we found the iminolactam warheads to be quite stable. Compound 1 was stable as a solid at room temperature for over 3 months. […] After 24‐h in aqueous buffer, compounds were treated with sodium cyanoborohydride. […] The synthetic strategy of in situ formation of imines by periodate treatment was pursued to avoid concerns of warhead reactivity with the ligand itself to either the peptide backbone or the phenoxyphenyl aryl group. This appears to have been unnecessary, at least for the iminolactam warhead. […] The more reactive ester imine may be forming semi‐stable cyclized products with the amide backbone, which have been observed previously with peptide aldehydes.^[ [51], [52] ^] Due to these issues, we selected compound P1b for further characterization.

CBX8 ChD [2] = target: T1, CBX8 ChD (Homo sapiens, UniProt Q9HC52); assay: Covalent conjugation to CBX8 ChD, UV integration on LC/MS; type: binding
T1 construct: CBX chromodomain constructs (addgene plasmid #25158 (CBX2), and #62514 (CBX8, provided by Cheryl Arrowsmith)); 6His; host or cells: E. coli (BL21 CodonPlus RIL or Rosetta 2)
T1 sequence (Q9HC52 11-69 limits assumed): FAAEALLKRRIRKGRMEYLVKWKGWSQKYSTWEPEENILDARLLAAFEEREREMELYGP
Procedure: Percent covalent conjugation was determined by UV integration on LC/MS after overnight incubation at 10 µM compound and protein at 37 °C.
2.3 In Vitro CBX ChD Labeling with Covalent Inhibitors. 10 µM purified CBX ChD was incubated with imine covalent inhibitors (10 µM) in PBS buffer (pH 7) at 37 °C or R.T. Protein labeling samples were precipitated using MeOH and CHCl3 at the volume ratio of MeOH:CHCl3:sample=3:0.5:1, washed twice using cold MeOH, and air dried. Dried protein pellets were resuspended in aqueous buffer (0.1% formic acid, 300 mM ammonium acetate).
Precipitated samples were analyzed on a C4 reversed-phase column (e.g., 2.1 × 150 mm, 3–5 µm particle size) using a linear gradient of solvent A (0.1% formic acid in water) and solvent B (0.1% formic acid in acetonitrile). Elution was monitored by UV absorbance at 215 nm, and mass spectra were acquired in positive ion mode to confirm the identities of unlabeled and labeled protein species.
Labeling yield (%)=AlabeledAlabeled+Aunlabeled×100
For P2, 10 µM purified CBX ChD was incubated with P2 (10 µM) in PBS buffer (pH 7) at 37 °C or R.T. for 1.5 hours, as well as 12 hours overnight. […] Dried protein pellets were resuspended in aqueous buffer (0.1% formic acid, 300 mM ammonium acetate), and protein labeling were characterized and quantitated by ESI LC-MS.

CBX2 ChD [3] = target: T2, CBX2 ChD (Homo sapiens, UniProt Q14781); assay: Labeling of CBX2 ChD (gel shift, MS); type: binding; conditions: gel shift or MS
T2 construct: CBX chromodomain constructs (addgene plasmid #25158 (CBX2), and #62514 (CBX8, provided by Cheryl Arrowsmith)); 6His; host or cells: E. coli (BL21 CodonPlus RIL or Rosetta 2)
T2 sequence (Q14781 12-70 limits assumed): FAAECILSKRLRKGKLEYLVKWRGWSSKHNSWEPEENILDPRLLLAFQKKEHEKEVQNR
Procedure: (§1) Observed masses are shown (expected average mass for CBX8 ChD = 8792 Da). The observed mass difference (913 Da) agrees with the expected mass change of 913 Da. b) Labeled protein was detected by gel shift on 16.5% Tris‐Tricine SDS‐PAGE. […] Gel analysis was conducted on a 2.5% agarose gel in 10 mM sodium borate buffer. […] Assays were conducted using SW2_113 as an FP probe (Figure S20) at 100 nM. All proteins were used at 2 µM in PBS (pH 7), 0.02% Tween 20. Error bars represent SD. […] (μM); no other compound label is printed beside the IC50 lines
We confirmed protein labeling through a gel shift assay on Tris‐Tricine SDS‐PAGE (Figure 5b). […] To validate labeling of the targeted tyrosine residue (Y39), this amino acid was mutated to phenylalanine. […] We additionally confirmed the labeling site as Y39 by trypsin digest and LC‐MS/MS analysis (Figure S9B).
For P2, 10 µM purified CBX ChD was incubated with P2 (10 µM) in PBS buffer (pH 7) at 37 °C or R.T. for 1.5 hours, as well as 12 hours overnight. Samples were precipitated using MeOH and CHCl3 at the volume ratio of MeOH:CHCl3:sample=3:0.5:1, washed twice using cold MeOH, and air dried. Dried protein pellets were resuspended in aqueous buffer (0.1% formic acid, 300 mM ammonium acetate), and protein labeling were characterized and quantitated by ESI LC-MS.

CBX8 ChD [4] = target: T1, CBX8 ChD; assay: Time-dependent fluorescence polarization displacement assay, CBX8 ChD; type: binding; conditions: Figure 5d, CBX8 ChD 2 µM, PBS pH 7
CBX2 ChD [5] = target: T2, CBX2 ChD; assay: Time-dependent fluorescence polarization displacement assay, CBX2 ChD; type: binding; conditions: for IC50: Figure 5d, CBX2 ChD 2 µM, probe 100 nM
Procedure: as §1
2.2 Fluorescence Displacement Assay to Evaluate Time-dependent potency of Imine Covalent Inhibitors to CBX ChD. Fluorescence polarization (FP) was measured by titration of CBX ChDs (CBX8 ChD/CBX8 ChD Y39F/CBX2 ChD) to a fluoresceine-labelled probe as previously reported ^1. Fluorescence displacement assays were performed in black 384-well plates with optical bottoms. Buffer used in FP assays consists of 100 mM Na2HPO4, 150 mM NaCl, 0.02% Tween 20. […] Two-fold dilutions of covalent inhibitors were used, starting with 100 µM as highest peptide concentration to 0.049 µM as the lowest. Four replicates were tested at each concentration. Fluorescence anisotropy was read at different time points. Raw data were analyzed using GraphPad Prism 7 following a “one site-Fit logIC50” competition model with any outliers (95 % confidence interval) being excluded.
Time-dependent fluorescence displacement assay Fluorescence polarization (FP) was measured by titration of CBX ChDs (CBX8 ChD/CBX8 ChD Y39F/CBX2 ChD) to a fluorescein-labelled probe as previously reported.^8 Fluorescence displacement assays were performed in black 384-well plates with optical bottoms. Buffer used in FP assays consists of 100 mM Na2HPO4, 150 mM NaCl, 0.02% Tween 20. […] Fluorescence anisotropy was read at different time points. […] Raw data were analyzed using GraphPad Prism 7 following a “one site-Fit logIC50” competition model with any outliers (95 % confidence interval) being excluded.

**Q.** For `CC[C@H](C)[C@H](NC(=O)[C@@H](NC(=O)c1ccc(Oc2ccccc2)cc1)C1CCCC1)C(=O)N[C@@H](CCCCN(CC)CCCCCCN1CCN=CC1=O)C(=O)N[C@@H](CO)C(N)=O` [P1b], which “stability to long‐term incubation in PBS” value [1] is on record?
**A.** stability over the 24 h

**Q.** What about the “% conj. to CBX8 at 37 °C Overnight 10 μM each” value (CBX8 ChD [2]; 10 µM compound and protein, 37 °C, overnight) of the same compound?
**A.** ~90%

**Q.** What about the “effect of GSH on CBX8 ChD labeling yield” value (CBX8 ChD [2]; presence of 10 mM GSH) of the same compound?
**A.** no effect on yield

**Q.** And the “labeling of CBX2 ChD” value (CBX2 ChD [3])?
**A.** no labeled protein was detected

**Q.** What about the IC50 (CBX8 ChD [4]; SW2_113 probe 100 nM, read-out: IC50 at time 0) of the same compound?
**A.** 9.9 µM

**Q.** What about the IC50 (CBX8 ChD [4]; IC50 at 20 h, probe 100 nM) of the same compound?
**A.** 2 µM

**Q.** What about the IC50 (CBX2 ChD [5]; read-out: IC50 at time 0) of the same compound?
**A.** 17 µM

**Q.** And the IC50 (CBX2 ChD [5]; IC50 at 20 h)?
**A.** 15 µM

**Q.** And the “change in potency in time‐dependent FP assay” value (CBX2 ChD [5]; binding to CBX2)?
**A.** no change in potency
